Literature values, collected in patent US5834196A, “Method for detecting and/or optionally quantifying and/or separating apoptotic cells in or from a sample” (Nexins Research B.V., priority 1994, dated 1998).

Target: annexin V
Details: phosphatidyl serine containing membranes; Ca^2+ dependent binding; given as an estimation

In the case of phosphatidyl serine, the Kd is given as under 0.1 nM.
